Measured values published in patent publication US5786358A, “Pyridopyrimidines as nonclassical antifolates” (The Trustees of Princeton University, priority 1996, dated 1998).
Converted amounts (≈) assume the structure as drawn. Where a name gives a salt, the structure may show the parent alone.

Assays:
CCRF-CEM cell line = test: CCRF-CEM cell growth inhibition; assay type: cell-based; conditions: Homo sapiens, read-out: IC50, concentration inhibiting cell growth of a CCRF-CEM cell line by 50% as compared to control
Method: For N-(N-{5-[2-(2-amino-4-hydroxy-5,6,7,8-tetrahydropyrido[2,3-d]pyrimidin-6-yl)-ethyl]thien-2-ylcarbonyl}-L-γ-glutamyl)-D-aspartic acid, the IC50 is 0.100 μg/mL. For N-(N-{5-[2-(2-amino-4-hydroxy-5,6,7,8-tetrahydropyrido[2,3-d]pyrimidin-6-yl)ethyl]thien-2-ylcarbonyl}-L-γ-glutamyl)-D-glutamic acid 1-tert.-butyl-2,2-diethyl ester, the IC50 is 1.0 μg/mL. For N-{5-[2-(2-amino-4-hydroxy-5,6,7,8-tetrahydropyrido[2,3-d]pyrimidin-6-yl)- ethyl]thien-2-ylcarbonyl}-L-homocysteic acid α-methyl ester, the IC50 is 0.200 μg/mL. […] For 2-{5-[2-(2-amino-4-hydroxy-5,6,7,8-tetrahydropyrido[2,3-d]pyrimidin-6-yl)ethyl]thien-2-ylcarbonylamino}-3-(2H-tetrazol-5-yl)propanoic acid diammonium salt the IC50 is >100 μg/mL.

[1] = molecular target: T1, human monofunctional GARFT (Homo sapiens, UniProt P22102); test: Ki against human monofunctional GARFT; assay type: biochemical; conditions: tight-binding analysis per Henderson; read-out: Ki inhibition constant against human monofunctional GARFT
T1 construct: human monofunctional GARFT
T1 sequence (P22102 810-1010 limits assumed): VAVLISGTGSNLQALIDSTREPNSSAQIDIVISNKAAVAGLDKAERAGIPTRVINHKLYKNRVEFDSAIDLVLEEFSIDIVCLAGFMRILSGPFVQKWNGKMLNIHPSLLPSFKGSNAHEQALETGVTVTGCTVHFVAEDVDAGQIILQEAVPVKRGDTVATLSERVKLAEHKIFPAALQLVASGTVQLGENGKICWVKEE

[2] = system: 6C3HED lymphosarcoma tumor; test: 6C3HED lymphosarcoma tumor growth inhibition in C3H female mice; assay type: in vivo; conditions: daily IV bolus injection for 8 days
Method: N-(N-{5-[2-(2-amino-4-hydroxy-5,6,7,8-tetrahydropyrido[2,3 -d]pyrimidin-6-yl)ethyl]thien-2-ylcarbonyl}-L-γ-glutamyl)-D-asparticacid was evaluated against 6C3HED lymphosarcoma tumor in C3H female mice with the compound given daily, IV bolus injection, for 8 days. Compounds were administered in units of mg/kg of body weight. At the end of treatment, tumor weight was estimated using an electronic caliper interfaced to a microcomputer, and average tumor weight was calculated for each dosing level and a control group. Percentage inhibition of tumor growth was calculated as % inhibition of tumor growth according to the expression:
[1-(average tumor weight experimental group/average tumor weight control
Percentage inhibition was not calculated at a particular dosing level if mortality exceeded 20%. Cumulative dose was calculated by multiplying the daily dose by the number of days doses were administered.

Row | IC50 (CCRF-CEM cell line) | Ki [1] | Structure (SMILES) | % inhibition of tumor growth ([2]; 100 mg/kg) | % inhibition of tumor growth ([2]; 200 mg/kg)
1 | 1 µg/mL (≈ 1.45 µM) | 7.7 nM | CCOC(=O)CC[C@@H](NC(=O)CC[C@H](NC(=O)c1ccc(CCC2CNc3nc(N)nc(O)c3C2)s1)C(=O)OC(C)(C)C)C(=O)OCC (stereo partly drawn) [N-(N-{5-[2-(2-amino-4-hydroxy-5,6,7,8-tetrahydropyrido[2,3-d]pyrimidin-6-yl)ethyl]thien-2-ylcarbonyl}-L-γ-glutamyl)-D-glutamic acid 1-tert.-butyl-2,2-diethyl ester] |  | 
2 | 28.6 µg/mL |  | Nc1nc(O)c2c(n1)NCC(CCc1ccc(C(=O)N[C@@H](Cc3nn[nH]n3)C(=O)O)cc1)C2 (stereo partly shown) [Example 12, 2-{4-[2-(2-Amino-4-hydroxy-5,6,7,8-tetrahydropyrido[2.3-d]pyrimidin-6-yl)ethyl]benzoylamino}-3-(2H-tetrazol-5-yl)propanoic Acid Diammonium Salt] |  | 
3 | > 100 µg/mL | 156 nM | Nc1nc(O)c2c(n1)NCC(CCc1ccc(C(=O)NC(Cc3nn[nH]n3)C(=O)O)s1)C2 (stereo not shown) [Example 13] |  | 

More lines, now with the values behind:

Row | Structure (SMILES) | IC50 (CCRF-CEM cell line) | Ki [1] | % inhibition of tumor growth ([2]; 100 mg/kg) | % inhibition of tumor growth ([2]; 200 mg/kg)
4 | Nc1nc(O)c2c(n1)NCC(CCc1ccc(C(=O)N[C@@H](CCC(=O)N[C@H](CC(=O)O)C(=O)O)C(=O)O)cc1)C2 (stereo partly drawn) [Example 1, N-(N-{4-[2-(2-Amino-4-hydroxy-5,6,7,8-tetrahydropyrido[2,3-d]pyrimidin-6-yl)ethyl]benzoyl}-L-γ-glutamyl)-D-aspartic Acid] | 1.6 µg/mL (≈ 2.86 µM) |  |  | 
5 | COC(=O)[C@H](CCS(=O)(=O)O)NC(=O)c1ccc(CCC2CNc3nc(N)nc(O)c3C2)s1 (stereo partly shown) [Example 8] | 0.2 µg/mL (≈ 0.4 µM) | 3.5 nM |  | 
6 | Nc1nc(O)c2c(n1)NCC(CCc1ccc(C(=O)N[C@@H](CCS(=O)(=O)O)C(=O)O)s1)C2 (stereo partly drawn) [Example 9, N-{5-[2-(2-Amino-4-hydroxy-5,6,7,8-tetrahydropyrido[2.3-d]pyrimidin-6-yl)-ethyl]thien-2-ylcarbonyl}-L-homocysteic Acid] | 0.82 µg/mL (≈ 1.69 µM) |  |  | 
7 | Nc1nc(O)c2c(n1)NCC(CCc1ccc(C(=O)N[C@@H](CCC(=O)N[C@H](CC(=O)O)C(=O)O)C(=O)O)s1)C2 (stereo partly shown) [Example 2] | 0.1 µg/mL (≈ 0.177 µM) | 0.244 nM | 100% | 100%
